In patent publication US20140128380A1, “METHODS OF MODULATING THE ACTIVITY OF THE MC1 RECEPTOR AND TREATMENT OF CONDITIONS RELATED TO THIS RECEPTOR” (Mimetica Pty Ltd, priority 2009, published 2014):

molecular target: T1, human MC1R (hMC1R) (Homo sapiens, UniProt Q01726); experiment: Human MC1R radioligand binding assay (displacement of 125I-labeled NDP-MSH, Perkin Elmer hMC1R membranes); conditions: displacement of [125I]NDP-MSH, compounds tested as trifluoroacetate or hydrochloride salts or free base
T1 construct: purchased Perkin Elmer ES-195-M400UA
T1 sequence (Q01726 whole entry): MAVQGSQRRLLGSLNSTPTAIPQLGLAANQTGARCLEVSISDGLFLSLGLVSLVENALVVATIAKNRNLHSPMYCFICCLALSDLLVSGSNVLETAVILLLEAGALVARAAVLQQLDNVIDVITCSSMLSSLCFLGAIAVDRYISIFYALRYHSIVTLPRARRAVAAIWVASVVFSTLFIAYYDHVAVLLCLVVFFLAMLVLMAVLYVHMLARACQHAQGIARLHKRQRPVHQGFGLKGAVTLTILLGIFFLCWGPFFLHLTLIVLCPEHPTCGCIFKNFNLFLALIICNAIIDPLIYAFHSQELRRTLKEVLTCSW
Method: Assessments of compound binding to human MC1R (hMC1R)) by displacement of an ^125I-labeled NDP-MSH receptor ligand peptide were performed essentially as described in the data sheets produced by Perkin Elmer to accompany their frozen hMC1R membranes (Perkin Elmer catalog number ES-195-M400UA).
[^125I] NDP-MSH: radiolabeled in house and purified by HPLC:
Na ^125I (0.5 mCi, 17.4 Ci/mg) was added to 50 μL sodium phosphate (50 mM, pH 7.4) in an eppendorf tube precoated with IODOGEN. After incubation for 10 mins the phosphate buffer containing the iodine was added to NDP-MSH (10 ul at 1 mg/mL) in a separate eppendorf tube. This was incubated for a further 10 mins. The iodinated NDP-MSH was purified by HPLC on a Zorbax SB 300 column using solvent A: 0.05% TFA and solvent B: 90% acetonitrile 0.045% TFA with a linear gradient, 0-67% B over 60 mins.
Perkin Elmer frozen hMC1 membranes: catalog number ES-195-M400UA, 0.4 mL/vial; 400 microassays/vial, 0.78 mg/mL protein concentration
Vials of frozen membranes were thawed rapidly immediately before use, diluted with binding buffer and vortexed. Resuspended membranes were kept on ice until they were added to the wells of the plate.
Assays were performed in 96 well polypropylene plates. […] This was incubated for 1 hr at 37° C.

IC50, < 10 µM:
CNC(=O)[C@H](Cc1ccc2ccccc2c1)N1CC[C@H](CNC(=O)Cc2ccc(Cl)cc2)N[C@@H](CCCNC(=N)N)C1=O [Compound 167, (S)-2-((3S,5R)-5-((2-(4-chlorophenyl)acetamido)methyl)-3-(3-guanidinopropyl)-2-oxo-1,4-diazepan-1-yl)-N-methyl-3-(naphthalen-2-yl)propanamide]
O=C(/C=C/c1ccc(Cl)cc1)NC[C@@H]1CCN(Cc2cc(Cl)cc(Cl)c2)C(=O)[C@H](CN2CCCCC2)N1 [Compound 152, (E)-3-(4-chlorophenyl)-N-(((3S,5S)-1-(3,5-dichlorobenzyl)-2-oxo-3-(piperidin-1-ylmethyl)-1,4-diazepan-5-yl)methyl)acrylamide]
CC(C)(C)c1ccc(C(=O)NC[C@@H]2CCN(CC(c3ccccc3)c3ccccc3)C(=O)[C@H](CCCNC(=N)N)N2)cc1 [Compound 114, 4-tert-butyl-N-(((3S,5S)-1-(2,2-diphenylethyl)-3-(3-guanidinopropyl)-2-oxo-1,4-diazepan-5-yl)methyl)benzamide]
N=C(N)NCCC[C@@H]1N[C@H](CNC(=O)c2cc3ccccc3[nH]2)CCN(CC(c2ccccc2)c2ccccc2)C1=O [Compound 113, N-(((3S,5S)-1-(2,2-diphenylethyl)-3-(3-guanidinopropyl)-2-oxo-1,4-diazepan-5-yl)methyl)-1H-indole-2-carboxamide]
NCC[C@@H]1N[C@H](CNC(=O)c2ccc(Cl)c(Cl)c2)CCN(Cc2cc(Cl)cc(Cl)c2)C1=O [Compound 140, N-(((3S,5S)-3-(2-aminoethyl)-1-(3,5-dichlorobenzyl)-2-oxo-1,4-diazepan-5-yl)methyl)-3,4-dichlorobenzamide]
N-(((3R,5R)-3-(2-amino-2-methylpropyl)-2-oxo-1-((S)-2-phenylbutyl)-1,4-diazepan-5-yl)methyl)-6-chloro-2-naphthamide [Compound 169]
N=C(N)NCCC[C@@H]1N[C@H](CNC(=O)c2ccc3ccccc3c2)CCN(Cc2cc(Cl)cc(Cl)c2)C1=O [Compound 100, N-(((3S,5S)-1-(3,5-dichlorobenzyl)-3-(3-guanidinopropyl)-2-oxo-1,4-diazepan-5-yl)methyl)-2-naphthamide]
NCCC[C@@H]1N[C@H](CNC(=O)c2ccc(-c3ccc(Cl)cc3)o2)CCN(CC(c2ccccc2)c2ccccc2)C1=O [Compound 128]
NCCCC[C@H]1N[C@H](CNC(=O)c2ccc(-c3ccccc3)cc2)CCN(CCc2ccccc2)C1=O [Compound 184, N-(((3R,5S)-3-(4-aminobutyl)-2-oxo-1-phenethyl-1,4-diazepan-5-yl)methyl)biphenyl-4-carboxamide]
CC[C@H](CN1CC[C@@H](CNC(=O)c2csc(-c3ccccc3)n2)N[C@@H](CCN2CCCCC2)C1=O)c1ccccc1 [Compound 178, N-(((3S,5S)-2-oxo-1-((S)-2-phenylbutyl)-3-(2-(piperidin-1-yl)ethyl)-1,4-diazepan-5-yl)methyl)-2-phenylthiazole-4-carboxamide]
N=C(N)NCCC[C@@H]1N[C@H](CNC(=O)c2ccc3ccccc3c2)CCN(c2ccc3ccccc3c2)C1=O [Compound 125, N-(((3S,5S)-3-(3-guanidinopropyl)-1-(naphthalen-2-yl)-2-oxo-1,4-diazepan-5-yl)methyl)-2-naphthamide]
O=C(/C=C/c1ccc(F)cc1F)NC[C@@H]1CCN(CC(c2ccccc2)c2ccccc2)C(=O)[C@H](CCN2CCCCC2)N1 [Compound 158, (E)-3-(2,4-difluorophenyl)-N-(((3S,5S)-1-(2,2-diphenylethyl)-2-oxo-3-(2-(piperidin-1-yl)ethyl)-1,4-diazepan-5-yl)methyl)acrylamide]
O=C(NC[C@@H]1CCN(CC(c2ccccc2)c2ccccc2)C(=O)[C@H](CCN2CCCCC2)N1)c1cc(-c2ccc(Cl)cc2)on1 [Compound 162, 5-(4-chlorophenyl)-N-(((3S,5S)-1-(2,2-diphenylethyl)-2-oxo-3-(2-(piperidin-1-yl)ethyl)-1,4-diazepan-5-yl)methyl)isoxazole-3-carboxamide]
CC(=O)N[C@@H](Cc1c[nH]cn1)C(=O)N[C@@H](Cc1ccccc1)[C@@H]1CCN(CCc2c[nH]c3ccccc23)C(=O)[C@H](CCCNC(=N)N)N1 [Compound 118, (S)—N—((S)-1-((3S,5S)-1-(2-(1H-indol-3-yl)ethyl)-3-(3-guanidinopropyl)-2-oxo-1,4-diazepan-5-yl)-2-phenylethyl)-2-acetamido-3-(1H-imidazol-4-yl)propanamide]
O=C(NC[C@@H]1CCN(CC(c2ccccc2)c2ccccc2)C(=O)[C@H](CCN2CCOCC2)N1)c1ccc2cc(Cl)ccc2c1 [Compound 181, 6-chloro-N-(((3S,5S)-1-(2,2-diphenylethyl)-3-(2-morpholinoethyl)-2-oxo-1,4-diazepan-5-yl)methyl)-2-naphthamide]
CC(C)c1ccc(/C=C/C(=O)NC[C@@H]2CCN(CC(c3ccccc3)c3ccccc3)C(=O)[C@H](CCN)N2)cc1 [Compound 156, (E)-N-(((3S,5S)-3-(2-aminoethyl)-1-(2,2-diphenylethyl)-2-oxo-1,4-diazepan-5-yl)methyl)-3-(4-isopropylphenyl)acrylamide]
NC[C@@H]1N[C@H](CNC(=O)c2ccc3ccccc3c2)CCN(Cc2cc(Cl)cc(Cl)c2)C1=O [Compound 149, N-(((3S,5S)-3-(aminomethyl)-1-(3,5-dichlorobenzyl)-2-oxo-1,4-diazepan-5-yl)methyl)-2-naphthamide]
NC[C@@H]1N[C@H](CNC(=O)c2ccc(Cl)c(Cl)c2)CCN(Cc2cc(Cl)cc(Cl)c2)C1=O [Compound 148, N-(((3S,5S)-3-(aminomethyl)-1-(3,5-dichlorobenzyl)-2-oxo-1,4-diazepan-5-yl)methyl)-3,4-dichlorobenzamide]
CC[C@H](CN1CC[C@@H](CNC(=O)c2ccc(Cl)c(Cl)c2)N[C@@H](CCN)C1=O)c1ccccc1 [Compound 170, N-(((3S,5S)-3-(2-aminoethyl)-2-oxo-1-((S)-2-phenylbutyl)-1,4-diazepan-5-yl)methyl)-3,4-dichlorobenzamide]
CC1CC(C)CC(CN2CC[C@@H](CNC(=O)c3ccc4ccccc4c3)N[C@@H](CCCNC(=N)N)C2=O)C1 (stereo partly drawn) [Compound 139, N-(((3S,5S)-1-((3,5-dimethylcyclohexyl)methyl)-3-(3-guanidinopropyl)-2-oxo-1,4-diazepan-5-yl)methyl)-2-naphthamide]
NCCC[C@@H]1N[C@H](CNC(=O)c2cc(-c3ccc(Cl)cc3)on2)CCN(CC(c2ccccc2)c2ccccc2)C1=O [Compound 129]
O=C(NC[C@@H]1CCN(CC(c2ccccc2)c2ccccc2)C(=O)[C@H](CCN2CCCCC2)N1)c1ccc2cc(Cl)ccc2c1 [Compound 154, 6-chloro-N-(((3S,5S)-1-(2,2-diphenylethyl)-2-oxo-3-(2-(piperidin-1-yl)ethyl)-1,4-diazepan-5-yl)methyl)-2-naphthamide]
NCCC[C@@H]1N[C@H](CNC(=O)/C=C/c2ccc(F)cc2)CCN(CC(c2ccccc2)c2ccccc2)C1=O [Compound 121, (E)-N-(((3S,5S)-3-(3-aminopropyl)-1-(2,2-diphenylethyl)-2-oxo-1,4-diazepan-5-yl)methyl)-3-(4-fluorophenyl)acrylamide]
